Legend:
Type in all cases: binding
Settings in all cases: Compound Concentration 10 µM
[1] = molecular target: T1, panel of 442 kinases (Homo sapiens, UniProt P42338)
T1 construct: purchased KINOMEscan
From the text: (§1) We assessed the selectivity of members of this scaffold using the KINOMEscan methodology across a near comprehensive panel of 442 kinases [[18,27]].

[2] = molecular target: T2, panel of 442 kinases (Homo sapiens, UniProt O95819)
T2 construct: purchased KINOMEscan
From the text: as §1

[3] = molecular target: T3, panel of 442 kinases (Homo sapiens, UniProt Q9Y616)
T3 construct: purchased KINOMEscan
T3 sequence (Q9Y616 1-596): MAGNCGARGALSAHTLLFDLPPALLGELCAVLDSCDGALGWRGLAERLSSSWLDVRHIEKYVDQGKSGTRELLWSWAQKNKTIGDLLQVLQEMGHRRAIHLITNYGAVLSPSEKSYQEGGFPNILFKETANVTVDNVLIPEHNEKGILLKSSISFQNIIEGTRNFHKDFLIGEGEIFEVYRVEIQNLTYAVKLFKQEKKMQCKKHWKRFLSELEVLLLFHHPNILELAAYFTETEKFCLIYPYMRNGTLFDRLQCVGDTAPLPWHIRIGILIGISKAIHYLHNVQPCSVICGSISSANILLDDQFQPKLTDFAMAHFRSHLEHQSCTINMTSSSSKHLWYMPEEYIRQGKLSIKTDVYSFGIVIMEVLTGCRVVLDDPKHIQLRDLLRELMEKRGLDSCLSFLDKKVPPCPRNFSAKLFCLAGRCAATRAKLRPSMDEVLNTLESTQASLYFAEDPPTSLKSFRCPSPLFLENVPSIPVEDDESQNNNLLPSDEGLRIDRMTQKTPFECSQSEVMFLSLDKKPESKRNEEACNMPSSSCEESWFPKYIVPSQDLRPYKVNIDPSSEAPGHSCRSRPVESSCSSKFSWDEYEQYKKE
From the text: as §1

T1 sequence (P42338 whole entry): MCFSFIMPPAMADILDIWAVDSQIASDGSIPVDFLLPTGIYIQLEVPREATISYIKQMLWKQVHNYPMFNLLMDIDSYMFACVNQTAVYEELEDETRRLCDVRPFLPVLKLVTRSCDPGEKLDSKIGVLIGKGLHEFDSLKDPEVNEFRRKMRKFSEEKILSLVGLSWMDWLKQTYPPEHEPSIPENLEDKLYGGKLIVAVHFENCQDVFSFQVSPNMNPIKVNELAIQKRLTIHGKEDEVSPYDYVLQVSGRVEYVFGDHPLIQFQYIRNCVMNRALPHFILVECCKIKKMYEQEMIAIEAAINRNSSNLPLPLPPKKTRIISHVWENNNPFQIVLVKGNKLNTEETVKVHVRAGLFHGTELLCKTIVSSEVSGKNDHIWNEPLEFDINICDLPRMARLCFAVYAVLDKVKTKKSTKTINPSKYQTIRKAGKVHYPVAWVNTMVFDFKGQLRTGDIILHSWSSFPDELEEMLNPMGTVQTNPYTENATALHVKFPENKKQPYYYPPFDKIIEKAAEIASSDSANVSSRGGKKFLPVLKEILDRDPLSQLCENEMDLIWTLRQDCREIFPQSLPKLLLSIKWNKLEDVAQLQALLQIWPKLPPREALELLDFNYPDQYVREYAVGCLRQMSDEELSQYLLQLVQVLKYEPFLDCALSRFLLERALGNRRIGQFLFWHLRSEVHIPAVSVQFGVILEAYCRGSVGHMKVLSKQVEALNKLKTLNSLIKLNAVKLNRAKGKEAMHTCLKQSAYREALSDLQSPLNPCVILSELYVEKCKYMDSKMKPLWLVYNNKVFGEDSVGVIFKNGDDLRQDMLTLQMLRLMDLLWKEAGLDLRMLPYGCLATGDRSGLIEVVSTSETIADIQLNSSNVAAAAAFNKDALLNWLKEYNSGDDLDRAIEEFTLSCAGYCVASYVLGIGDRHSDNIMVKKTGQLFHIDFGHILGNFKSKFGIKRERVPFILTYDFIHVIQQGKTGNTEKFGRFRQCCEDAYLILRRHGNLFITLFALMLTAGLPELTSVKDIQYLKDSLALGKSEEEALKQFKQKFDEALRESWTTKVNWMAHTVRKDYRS
T2 sequence (O95819 whole entry): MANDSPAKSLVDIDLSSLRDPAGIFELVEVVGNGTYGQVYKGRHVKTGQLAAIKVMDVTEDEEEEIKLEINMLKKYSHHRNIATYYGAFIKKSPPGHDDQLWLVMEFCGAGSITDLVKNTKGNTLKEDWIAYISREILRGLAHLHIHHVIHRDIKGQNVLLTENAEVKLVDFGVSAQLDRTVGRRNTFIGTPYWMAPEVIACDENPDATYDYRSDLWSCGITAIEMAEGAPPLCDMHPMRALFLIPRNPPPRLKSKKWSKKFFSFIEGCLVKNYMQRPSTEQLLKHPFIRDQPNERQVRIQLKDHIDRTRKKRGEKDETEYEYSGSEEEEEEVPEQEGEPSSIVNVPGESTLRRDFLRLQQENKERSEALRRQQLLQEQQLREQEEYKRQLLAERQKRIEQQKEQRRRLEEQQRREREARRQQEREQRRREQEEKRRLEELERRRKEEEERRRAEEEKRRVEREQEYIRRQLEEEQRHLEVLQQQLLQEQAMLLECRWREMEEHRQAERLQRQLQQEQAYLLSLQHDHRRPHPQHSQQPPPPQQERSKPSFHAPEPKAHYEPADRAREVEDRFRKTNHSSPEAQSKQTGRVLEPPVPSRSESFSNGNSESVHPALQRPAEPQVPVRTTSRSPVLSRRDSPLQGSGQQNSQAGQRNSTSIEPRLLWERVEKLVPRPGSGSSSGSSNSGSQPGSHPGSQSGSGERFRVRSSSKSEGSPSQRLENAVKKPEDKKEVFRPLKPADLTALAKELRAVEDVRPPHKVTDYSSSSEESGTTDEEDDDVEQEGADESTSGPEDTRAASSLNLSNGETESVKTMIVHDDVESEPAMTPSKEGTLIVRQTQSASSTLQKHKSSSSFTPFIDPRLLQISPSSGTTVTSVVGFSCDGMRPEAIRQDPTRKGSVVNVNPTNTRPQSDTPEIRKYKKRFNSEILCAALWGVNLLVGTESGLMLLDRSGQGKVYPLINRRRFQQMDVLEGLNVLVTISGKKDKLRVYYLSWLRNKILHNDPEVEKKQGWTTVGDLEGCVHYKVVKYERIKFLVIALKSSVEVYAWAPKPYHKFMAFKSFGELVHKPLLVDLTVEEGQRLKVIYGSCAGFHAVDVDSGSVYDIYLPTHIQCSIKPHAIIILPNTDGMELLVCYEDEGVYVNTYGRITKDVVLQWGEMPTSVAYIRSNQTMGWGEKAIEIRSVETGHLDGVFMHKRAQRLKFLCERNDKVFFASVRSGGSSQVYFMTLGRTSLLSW

| Compound | KINOMEscan: PIK3CB [1] | KINOMEscan: MAP4K4 [2] | KINOMEscan: IRAK3 [3] |
| --- | --- | --- | --- |
| COc1cc(C(=O)N2CCC(N3CCN(C)CC3)CC2)ccc1Nc1ncc2c(n1)N(C)c1ccccc1C(=O)N2C [15 (LRRK2-IN-1)] | 96 | 85 | 100 |
| COc1cc(C(=O)N2CCC(N3CCN(C)CC3)CC2)ccc1Nc1ncc2c(n1)N1CCc3cccc(c31)C(=O)N2C [Compound 24] | 71 | 35 | – |
| COc1cc(C(=O)N2CCC(N3CCN(C)CC3)CC2)ccc1Nc1ncc2c(n1)N(C1CCCC1)c1ccccc1C(=O)N2C [Compound 25, 11-cyclopentyl-2-((2-methoxy-4-(4-(4-methylpiperazin-1-yl)piperidine-1-carbonyl)phenyl)amino)-5-methyl-5H-benzo[e]pyrimido[5,4-b][1,4]diazepin-6(11H)-one] | 87 | 98 | 100 |
| CCOc1cc(C(=O)N2CCC(N3CCN(C)CC3)CC2)ccc1Nc1ncc2c(n1)N(C1CCCC1)c1ccccc1C(=O)N2C [Compound 26] | 100 | 96 | 100 |
